Data published in patent US20160009693A1, “HERBICIDAL COMPOUNDS” (SYNGENTA LIMITED, priority 2013, published 2016).

Assays:
Format in all cases: in vivo
Settings in all cases: applied at 1000 g/h, evaluated after 13 days
[1] = tested on: Echinochloa crus-galli (ECHCG); test: Herbicidal glasshouse test, pre-emergence, ECHCG
Outline: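 In this pre-emergence glasshouse test, ECHCG seeds sown in pots of standard soil were sprayed one day after sowing with the test material in acetone/water (50:50) containing 0.5% Tween 20. Plants were kept at 24/16° C., 14 hours light, 65% humidity, and watered twice daily. Percentage damage was rated after 13 days on a 1–5 scale.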

Solanum nigrum (SOLNI) [2] = test: Herbicidal glasshouse test, post-emergence, SOLNI
Solanum nigrum (SOLNI) [3] = test: Herbicidal glasshouse test, pre-emergence, SOLNI
Outline: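 This pre-emergence glasshouse herbicide test used Solanum nigrum sown in standard soil. One day after sowing, pots were sprayed with the compound in acetone/water (50:50) with 0.5% Tween 20. They were then grown at 24/16° C., with 14 hours light and 65% humidity, and watered twice daily. Percentage damage was scored after 13 days on a five point scale, where 5=80-100% and 1=0-19%.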

[4] = tested on: Alopecurus myosuroides (ALOMY); test: Herbicidal glasshouse test, pre-emergence, ALOMY
[5] = tested on: Ipomoea hederacea (IPOHE); test: Herbicidal glasshouse test, pre-emergence, IPOHE
[6] = tested on: Amaranthus retoflexus (AMARE); test: Herbicidal glasshouse test, post-emergence, AMARE
Outline: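 This post-emergence glasshouse test used AMARE plants raised in standard soil for 8 days under controlled conditions (24/16° C. day/night, 14 hours light, 65% humidity). Foliage was sprayed with formulated compound in acetone/water (50:50) containing 0.5% Tween 20. Plants were then watered twice daily, and after 13 days percentage damage was rated on a five point scale.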

[7] = tested on: Echinochloa crus-galli (ECHCG); test: Herbicidal glasshouse test, post-emergence, ECHCG
Outline: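 In this post-emergence glasshouse test, barnyard grass (ECHCG) was cultivated for 8 days under controlled conditions (24/16° C. day/night, 14 hours light, 65% humidity). It was then sprayed with an aqueous solution of the technical compound in acetone / water (50:50) with 0.5% Tween 20. Plants were kept under the same conditions and watered twice daily. After 13 days, percentage damage was rated on a five point scale (5=80-100%; 1=0-19%).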

Setaria faberi (SETFA) [8] = test: Herbicidal glasshouse test, post-emergence, SETFA
Outline: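 This post-emergence glasshouse herbicide test used potted Setaria faberi. Plants were cultivated for 8 days under controlled conditions (24/16° C. day/night, 14 hours light, 65% humidity) and then treated with an aqueous spray made from an acetone/water (50:50) solution containing 0.5% Tween 20. After 13 days of further growth with twice-daily watering, damage was rated on a five point scale (5=80-100%; 1=0-19%).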

Setaria faberi (SETFA) [9] = test: Herbicidal glasshouse test, pre-emergence, SETFA
[10] = tested on: Ipomoea hederacea (IPOHE); test: Herbicidal glasshouse test, post-emergence, IPOHE
[11] = tested on: Alopecurus myosuroides (ALOMY); test: Herbicidal glasshouse test, post-emergence, ALOMY
[12] = tested on: Amaranthus retoflexus (AMARE); test: Herbicidal glasshouse test, pre-emergence, AMARE
Outline: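 This pre-emergence glasshouse herbicide test used Amaranthus retoflexus sown in standard soil. After one day of cultivation, an aqueous spray made from the technical ingredient in 50:50 acetone/water with 0.5% Tween 20 was applied. Pots stayed at 24/16° C., 14 hours light, 65% humidity, with twice-daily watering. Damage was rated on a five point scale (1=0-19% up to 5=80-100%).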

Row | SMILES | PRE Application ECHCG, percentage damage (five point scale) [1] | POST Application SOLNI, percentage damage (five point scale) (Solanum nigrum (SOLNI) [2]) | PRE Application SOLNI, percentage damage (five point scale) (Solanum nigrum (SOLNI) [3]) | PRE Application ALOMY, percentage damage (five point scale) [4] | PRE Application IPOHE, percentage damage (five point scale) [5] | POST Application AMARE, percentage damage (five point scale) [6] | POST Application ECHCG, percentage damage (five point scale) [7] | POST Application SETFA, percentage damage (five point scale) (Setaria faberi (SETFA) [8]) | PRE Application SETFA, percentage damage (five point scale) (Setaria faberi (SETFA) [9]) | POST Application IPOHE, percentage damage (five point scale) [10] | POST Application ALOMY, percentage damage (five point scale) [11] | PRE Application AMARE, percentage damage (five point scale) [12]
1 | Cn1nnnc1NC(=O)c1nn(C)c(=O)n(Cc2ccccc2Br)c1=O [Compound 1.082] | 5 (5=80-100%) | 5 (5=80-100%) | 5 (5=80-100%) | 5 (5=80-100%) | 5 (5=80-100%) | 5 (5=80-100%) | 5 (5=80-100%) | 2 (2=20-39%) | 3 (3=40-59%) | 5 (5=80-100%) | 5 (5=80-100%) | 5 (5=80-100%)
2 | Cn1nnnc1NC(=O)c1nn(C)c(=O)n(Cc2ccccc2C#N)c1=O [Compound 1.083] | 5 (5=80-100%) | 5 (5=80-100%) | 5 (5=80-100%) | 5 (5=80-100%) | 5 (5=80-100%) | 5 (5=80-100%) | 5 (5=80-100%) | 5 (5=80-100%) | 5 (5=80-100%) | 5 (5=80-100%) | 5 (5=80-100%) | 5 (5=80-100%)
3 | Cn1nnnc1NC(=O)c1nn(C)c(=O)n(Cc2cccc(Cl)c2)c1=O [Compound 1.084] | 5 (5=80-100%) | 5 (5=80-100%) | 5 (5=80-100%) | 5 (5=80-100%) | 5 (5=80-100%) | 5 (5=80-100%) | 5 (5=80-100%) | 2 (2=20-39%) | 2 (2=20-39%) | 5 (5=80-100%) | 5 (5=80-100%) | 5 (5=80-100%)
4 | Cn1nnnc1NC(=O)c1nn(C)c(=O)n(Cc2cc(Cl)nc(Cl)c2)c1=O [Compound 1.085] | 5 (5=80-100%) | 5 (5=80-100%) | 5 (5=80-100%) | 5 (5=80-100%) | 5 (5=80-100%) | 5 (5=80-100%) | 5 (5=80-100%) | 2 (2=20-39%) | 2 (2=20-39%) | 5 (5=80-100%) | 5 (5=80-100%) | 5 (5=80-100%)
5 | Cn1nnnc1NC(=O)c1nn(C)c(=O)n(Cc2ccc(C(F)F)cc2)c1=O [Compound 1.086] | 5 (5=80-100%) | 5 (5=80-100%) | 5 (5=80-100%) | 5 (5=80-100%) | 5 (5=80-100%) | 5 (5=80-100%) | 5 (5=80-100%) | 2 (2=20-39%) | 2 (2=20-39%) | 5 (5=80-100%) | 5 (5=80-100%) | 5 (5=80-100%)
6 | CC(C)CCn1c(=O)c(C(=O)Nc2nnnn2C)nn(C)c1=O [Compound 1.087] | 5 (5=80-100%) | 5 (5=80-100%) | 5 (5=80-100%) | 5 (5=80-100%) | 5 (5=80-100%) | 5 (5=80-100%) | 5 (5=80-100%) | 5 (5=80-100%) | 5 (5=80-100%) | 5 (5=80-100%) | 5 (5=80-100%) | 5 (5=80-100%)
7 | COCCn1c(=O)c(C(=O)Nc2nnnn2C)nn(C)c1=O [Compound 1.088] | 5 (5=80-100%) | 5 (5=80-100%) | 5 (5=80-100%) | 5 (5=80-100%) | 5 (5=80-100%) | 5 (5=80-100%) | 5 (5=80-100%) | 5 (5=80-100%) | 5 (5=80-100%) | 5 (5=80-100%) | 5 (5=80-100%) | 5 (5=80-100%)
8 | C#CCn1c(=O)c(C(=O)Nc2nnnn2C)nn(C)c1=O [Compound 1.089] | 5 (5=80-100%) | 5 (5=80-100%) | 5 (5=80-100%) | 5 (5=80-100%) | 5 (5=80-100%) | 5 (5=80-100%) | 5 (5=80-100%) | 5 (5=80-100%) | 5 (5=80-100%) | 5 (5=80-100%) | 5 (5=80-100%) | 5 (5=80-100%)
9 | Cn1nnnc1NC(=O)c1nn(C)c(=O)n(CCCC(F)(F)F)c1=O [Compound 1.090] | 5 (5=80-100%) | 5 (5=80-100%) | 5 (5=80-100%) | 5 (5=80-100%) | 5 (5=80-100%) | 5 (5=80-100%) | 5 (5=80-100%) | 5 (5=80-100%) | 5 (5=80-100%) | 5 (5=80-100%) | 5 (5=80-100%) | 5 (5=80-100%)
